Patent publication US12458634B2, “Stabilized liquid formations containing picosulfate” (Ferring B.V., priority 2016, dated 2025)

Assay: Chemical stability of sodium picosulfate liquid formulations on storage (UPLC/HPLC assay of sodium picosulfate and degradation products)
Settings: for Effect of the anti-oxidant on initial rate of formation of Picosulfate Benzyl Alcohol, Compound RRT 1.35 and Compound RRT 1.94: formulations containing sodium carboxymethylcellulose and malic acid (Table 14); for Effect of the anti-oxidant on rate of formation of Picosulfate Benzyl Alcohol: formulations containing sodium picosulfate, magnesium citrate and malic acid
[1] = water-soluble antioxidants (Table 17)
[2] = water-insoluble antioxidants (Table 21)

Structure (SMILES)	Effect of the anti-oxidant on initial rate of formation of Picosulfate Benzyl Alcohol, Compound RRT 1.35 and Compound RRT 1.94	Effect of the anti-oxidant on rate of formation of Picosulfate Benzyl Alcohol [1]	Effect of the anti-oxidant on rate of formation of Picosulfate Benzyl Alcohol [2]
O=S([O-])S(=O)(=O)[O-].[K+].[K+] [potassium metabisulfite]	effective to reduce the initial rate of formation		
N[C@@H](Cc1c[nH]cn1)C(=O)O [histidine]		effective to reduce the rate of formation	
O=S([O-])S(=O)(=O)[O-].[Na+].[Na+] [sodium metabisulfite]	effective to reduce the initial rate of formation	effective to reduce the rate of formation	
Cc1c(C)c2c(c(C)c1O)CC[C@@](C)(CCC[C@H](C)CCC[C@H](C)CCCC(C)C)O2 [α-tocopherol]			effective to reduce the rate of formation
COc1ccc(O)c(C(C)(C)C)c1 [BHA, butylated hydroxyanisole]			effective to reduce the rate of formation
CCCOC(=O)c1cc(O)c(O)c(O)c1 [propyl gallate]			effective to reduce the rate of formation
Cc1cc(C(C)(C)C)c(O)c(C(C)(C)C)c1 [BHT, butylated hydroxytoluene]			effective to reduce the rate of formation
